Reference: ChEMBL document CHEMBL4002577, “Phenylthiazole antibiotics: A metabolism-guided approach to overcome short duration of action” (Eur J Med Chem, 2017)
Converted amounts (≈) assume the structure as drawn. The source made the active and inactive calls. The calls are words filed in the database; no cut-off is given here.

What was measured:
Staphylococcus aureus [1] = experiment: Antibacterial activity against methicillin-resistant Staphylococcus aureus USA400 NRS123 clinical isolate infected in mouse J774 cells assessed as reduction of bacterial load at 16 ug/ml after 12 hrs relative to control; assay type: functional; settings: USA400 NRS123, J774, 12 h
[2] = Intrinsic clearance in human liver microsomes after 10 to 60 mins in presence of NADPH by LC/MS/MS analysis; assay type: ADME, microsome; settings: read-out: CLH
Staphylococcus aureus [3] = experiment: Potency index, ratio of vancomycin MIC to test compound MIC for methicillin-resistant Staphylococcus aureus 2658 RCMB; assay type: functional
Staphylococcus aureus [4] = experiment: Ratio of MBC to MIC for methicillin/erythromycin/tetracycline-resistant Staphylococcus aureus USA300 NRS384 clinical isolate; assay type: functional
Staphylococcus aureus [5] = experiment: Potentiation of vancomycin-mediated antibacterial activity against vancomycin-resistant Staphylococcus aureus VRSA4 clinical isolate assessed as reduction in vancomycin MIC at 0.5 times MIC preincubated for 30 mins followed by vancomycin addition measured after 20 to 22 hrs relative to control; assay type: functional
Staphylococcus aureus [6] = experiment: Antibacterial activity against methicillin/ciprofloxacin/clindamycin-resistant Staphylococcus aureus USA100 NRS382 clinical isolate after 18 to 20 hrs by broth microdilution method; assay type: functional
Staphylococcus aureus [7] = experiment: Ratio of MBC to MIC for methicillin/ciprofloxacin/gentamicin/clindamycin-resistant Staphylococcus aureus USA200 NRS383 clinical isolate; assay type: functional
Staphylococcus aureus [8] = experiment: Antibacterial activity against methicillin/erythromycin/tetracycline-resistant Staphylococcus aureus USA300 NRS384 clinical isolate after 18 to 20 hrs by broth microdilution method; assay type: functional
Staphylococcus aureus [9] = experiment: Ratio of MBC to MIC for methicillin-resistant Staphylococcus aureus USA400 NRS123 clinical isolate; assay type: functional
Staphylococcus aureus [10] = experiment: Bactericidal activity against mupirocin/rifampicin-resistant Staphylococcus aureus RN4220 NRS107 clinical isolate after 24 hrs; assay type: functional; settings: RN4220 NRS107, 24 h
Staphylococcus aureus [11] = experiment: Potentiation of vancomycin-mediated antibacterial activity against vancomycin-resistant Staphylococcus aureus VRSA10 clinical isolate assessed as reduction in vancomycin MIC at 0.5 times MIC preincubated for 30 mins followed by vancomycin addition measured after 20 to 22 hrs relative to control; assay type: functional
J774 = experiment: Cytotoxicity against mouse J774 cells assessed as decrease in cell viability up to 16 ug/ml after 2 hrs by MTS assay; assay type: cell-based; settings: j774, 2 h
Staphylococcus aureus [12] = experiment: Antibacterial activity against methicillin/ciprofloxacin/gentamicin/clindamycin-resistant Staphylococcus aureus USA200 NRS383 clinical isolate after 18 to 20 hrs by broth microdilution method; assay type: functional
HaCaT [13] = experiment: Cytotoxicity against human HaCaT cells assessed as decrease in cell viability up to 32 ug/ml after 2 hrs by MTS assay; assay type: cell-based
Staphylococcus aureus [14] = experiment: Antibacterial activity against methicillin-resistant Staphylococcus aureus USA400 NRS123 clinical isolate infected in mouse J774 cells assessed as reduction of bacterial load at 16 ug/ml after 8 hrs; assay type: functional, cell-based
Staphylococcus aureus [15] = experiment: Antibacterial activity against methicillin-resistant Staphylococcus aureus USA400 NRS123 clinical isolate infected in mouse J774 cells assessed as reduction of bacterial load at 16 ug/ml after 24 hrs relative to control; assay type: functional
Staphylococcus aureus [16] = experiment: Antibacterial activity against mupirocin/rifampicin-resistant Staphylococcus aureus RN4220 NRS107 clinical isolate after 18 to 20 hrs by broth microdilution method; assay type: functional
Staphylococcus aureus [17] = experiment: Bactericidal activity against vancomycin-resistant Staphylococcus aureus VRSA10 clinical isolate after 24 hrs; assay type: functional; settings: VRSA10, 24 h
[18] = Half life in human liver microsomes after 10 to 60 mins in presence of NADPH by LC/MS/MS analysis; assay type: ADME, microsome
HaCaT [19] = experiment: Cytotoxicity against human HaCaT cells assessed as decrease in cell viability at 64 ug/ml after 2 hrs by MTS assay; assay type: cell-based
Staphylococcus aureus [20] = experiment: Bactericidal activity against methicillin-resistant Staphylococcus aureus USA400 NRS123 clinical isolate assessed as time required to reduce 3 log10CFU of bacterial load at 4 times MIC by time kill assay; assay type: functional
Staphylococcus aureus [21] = experiment: Antibacterial activity against methicillin-resistant Staphylococcus aureus 2658 RCMB after 18 to 20 hrs by broth microdilution method; assay type: functional
Staphylococcus aureus [22] = experiment: Bactericidal activity against methicillin-resistant Staphylococcus aureus USA400 NRS123 clinical isolate after 24 hrs; assay type: functional; settings: for MBC: USA400 NRS123, 24 h
Staphylococcus aureus [23] = experiment: Bactericidal activity against methicillin/erythromycin/tetracycline-resistant Staphylococcus aureus USA300 NRS384 clinical isolate after 24 hrs; assay type: functional; settings: for MBC: USA300 NRS384, 24 h
Staphylococcus aureus [24] = experiment: Antibacterial activity against vancomycin-resistant Staphylococcus aureus VRSA4 clinical isolate after 18 to 20 hrs by broth microdilution method; assay type: functional
Staphylococcus aureus [25] = experiment: Antibacterial activity against methicillin-resistant Staphylococcus aureus USA400 NRS123 clinical isolate after 18 to 20 hrs by broth microdilution method; assay type: functional
[26] = Intrinsic clearance in human liver microsomes after 10 to 60 mins in absence of NADPH by LC/MS/MS analysis; assay type: ADME, microsome; settings: read-out: CLH
[27] = Half life in human liver microsomes after 10 to 60 mins in absence of NADPH by LC/MS/MS analysis; assay type: ADME, microsome
Staphylococcus aureus [28] = experiment: Bactericidal activity against vancomycin-resistant Staphylococcus aureus VRSA4 clinical isolate after 24 hrs; assay type: functional; settings: VRSA4, 24 h
Staphylococcus aureus [29] = experiment: Antibacterial activity against vancomycin-resistant Staphylococcus aureus VRSA10 clinical isolate after 18 to 20 hrs by broth microdilution method; assay type: functional
Staphylococcus aureus [30] = experiment: Bactericidal activity against methicillin/ciprofloxacin/gentamicin/clindamycin-resistant Staphylococcus aureus USA200 NRS383 clinical isolate after 24 hrs; assay type: functional; settings: for MBC: USA200 NRS383, 24 h
Staphylococcus aureus [31] = experiment: Bactericidal activity against methicillin/ciprofloxacin/clindamycin-resistant Staphylococcus aureus USA100 NRS382 clinical isolate after 24 hrs; assay type: functional; settings: for MBC: USA100 NRS382, 24 h
Staphylococcus aureus [32] = experiment: Bactericidal activity against methicillin-resistant Staphylococcus aureus USA400 NRS123 clinical isolate assessed as reduction of bacterial load at 4 times MIC after 24 hrs by time kill assay; assay type: functional

C/C(=N\NC(=N)N)c1sc(-c2ccc(OC3CCCCCC3)cc2)nc1C
inhibition at 16 µg/mL (Staphylococcus aureus [1]): 48% | microsomal CLint [2]: < 9.6 µL/min/mg | Ratio (Staphylococcus aureus [3]): 1 | Ratio (Staphylococcus aureus [4]): >3 | fold change (FC) (Staphylococcus aureus [5]): 16 | MIC (Staphylococcus aureus [6]): 2 µg/mL (≈ 5.19 µM) | Ratio (Staphylococcus aureus [7]): >3 | MIC (Staphylococcus aureus [8]): 4 µg/mL (≈ 10.4 µM) | Ratio (Staphylococcus aureus [9]): >3 | MBC (Staphylococcus aureus [10]): 8 µg/mL (≈ 20.8 µM) | fold change (FC) (Staphylococcus aureus [11]): 256 | Activity (J774): Non-Toxic | MIC (Staphylococcus aureus [12]): 2 µg/mL (≈ 5.19 µM) | Activity (HaCaT [13]): Non-Toxic | Activity (Staphylococcus aureus [14]): inactive | inhibition at 16 µg/mL (Staphylococcus aureus [15]; USA400 NRS123, J774, 24 h): 70% | MIC (Staphylococcus aureus [16]): 4 µg/mL (≈ 10.4 µM) | MBC (Staphylococcus aureus [17]): 4 µg/mL (≈ 10.4 µM) | half-life [18]: > 4 h | Activity (HaCaT [19]): Toxic | Time (Staphylococcus aureus [20]): 48 h | MIC (Staphylococcus aureus [21]): 0.98 µg/mL (≈ 2.54 µM) | Activity (Staphylococcus aureus [22]): Dose-dependent effect | MBC (Staphylococcus aureus [22]): 16 µg/mL (≈ 41.5 µM) | Activity (Staphylococcus aureus [23]): Dose-dependent effect | MBC (Staphylococcus aureus [23]): 16 µg/mL (≈ 41.5 µM) | MIC (Staphylococcus aureus [24]): 4 µg/mL (≈ 10.4 µM) | MIC (Staphylococcus aureus [25]): 4 µg/mL (≈ 10.4 µM) | microsomal CLint [26]: < 9.6 µL/min/mg | half-life [27]: > 4 h | MBC (Staphylococcus aureus [28]): 4 µg/mL (≈ 10.4 µM) | MIC (Staphylococcus aureus [29]): 4 µg/mL (≈ 10.4 µM) | Activity (Staphylococcus aureus [30]): Dose-dependent effect | MBC (Staphylococcus aureus [30]): 8 µg/mL (≈ 20.8 µM) | Activity (Staphylococcus aureus [31]): Dose-dependent effect | MBC (Staphylococcus aureus [31]): 4 µg/mL (≈ 10.4 µM)

CN[C@H](CC(C)C)C(=O)N[C@H]1C(=O)N[C@@H](CC(N)=O)C(=O)N[C@H]2C(=O)N[C@H]3C(=O)N[C@H](C(=O)N[C@H](C(=O)O)c4cc(O)cc(O)c4-c4cc3ccc4O)[C@H](O)c3ccc(c(Cl)c3)Oc3cc2cc(c3O[C@@H]2O[C@H](CO)[C@@H](O)[C@H](O)[C@H]2O[C@H]2C[C@](C)(N)[C@H](O)[C@H](C)O2)Oc2ccc(cc2Cl)[C@H]1O [VANCOMYCIN]
MIC (Staphylococcus aureus [6]): < 1 µg/mL | Activity (Staphylococcus aureus [32]): Active | MBC (Staphylococcus aureus [10]): 1 µg/mL (≈ 0.69 µM) | Activity (Staphylococcus aureus [15]): inactive | MBC (Staphylococcus aureus [17]): > 512 µg/mL | MIC (Staphylococcus aureus [21]): 1.95 µg/mL (≈ 1.35 µM) | MBC (Staphylococcus aureus [22]): 0.5 µg/mL (≈ 0.345 µM) | MBC (Staphylococcus aureus [23]): 1 µg/mL (≈ 0.69 µM) | MIC (Staphylococcus aureus [24]): > 512 µg/mL | MBC (Staphylococcus aureus [28]): > 512 µg/mL | MIC (Staphylococcus aureus [29]): > 512 µg/mL | MBC (Staphylococcus aureus [30]): 0.5 µg/mL (≈ 0.345 µM) | MBC (Staphylococcus aureus [31]): < 1 µg/mL
